Values joined by “and” are separate entries in the source; they are usually repeats but may differ in a detail not shown here. Identical values can stand only once. Residues, ends and D or L forms follow the SMILES beside them.
B1: RNase 3: Recombinant human RNase 3, also known as eosinophil cationic protein (ECP), parental protein of the peptide (protein, UniProt P12724 28-160, looked up)
Eosinophil cationic protein: RPPQFTRAQWFAIQHISLNPPRCTIAMRAINNYRWRCKNQNTFLRTTFANVVNVCGNQSIRCPHNRTLNNCHRSRFRVPLLHCDLINPGAQNISNCTYADRPGRRFYVVACDNRDPRDSPRYPVVPVHLDTTI

Columns and labels:
[1] = Biofilm cell mortality, BacTiter-Glo luminescent assay; type: cell-based, Pseudomonas aeruginosa; settings: 24 h formed biofilm; 4 h at 37° C.; 10% Triton X-100 as maximum reference; N.D. = not detected at 50 μM; read-out: Biofilm cell mortality (%max)
Experimental: (§1) Bacterial viability was assayed using the BacTiter-Glo™ microbial cell viability kit. Briefly, protein/peptides were dissolved in 10 mM sodium phosphate, 0.1M buffer, pH 7.5, serially diluted from 50 to 0.1 μM and tested in a 96-well microtiter plate containing P. aeruginosa planktonic (OD600˜0.2) or 24 h formed biofilm for 4 h at 37° C. Fifty microliters of BacTiter-Glo™ reagent was added to each well according to the manufacturer's instructions and incubated at room temperature for 15 min. Luminescence was read on a Victor3 plate reader with a 3-s integration time. Fifty percent (ED50) and total inhibitory concentrations were calculated by fitting the data to a dose-response curve.
(§2) As a first approach, the biofilm cell viability was monitored using the BacTiter-Glo™ luminescent assay. Therefore, the antimicrobial action of the studied AMPs was determined on already established P. aeruginosa biolfilms (FIG. 1 and Table 6). […] However, for all the active peptides, the concentrations needed to produce an equivalent effect in biofilms were between 2 to 10 times higher than in planktonic cultures. […] At the same time, we applied the crystal violet technique to assess the peptide ability to disperse pre-established P. aeruginosa biofilms.
(§3) Biofilm formation assay was modified from the previously described protocol (Huedo P. et al. 2014). Briefly, overnight cultures of P. aeruginosa were centrifuged at 5000×g for 5 min, washed and adjusted to an OD600=0.1 in tryptic soy medium (TSB). Two hundred microliters of the bacterial suspension were dispensed in each well of a polystyrene 96-well microtiter plate (Greiner Bio-one, France). The plate was incubated at 37° C. on an orbital shaker (30 rpm). The media was exchanged with fresh pre-warmed TSB after 4 h, in order to remove the non-attached bacteria. After 24 h incubation, the formation of biofilm was then evaluated using the crystal violet staining technique (Stepanovic S. et al. 2000). Briefly, the plates were washed three times with PBS, fixed at 60° C. for 1 h, and stained for 15 min with 200 μl of 0.1% crystal violet. After the dye was discarded, plates were rinsed in PBS and allowed to dry for 30 min at 37° C. Crystal violet was dissolved in 250 μl of 95% ethanol for 15 min, and the OD570 of the extracted dye was measured using a Victor3 plate reader (Perkin-Elmer, Waltham, Mass.).

[2] = tested on: established P. aeruginosa biofilms; experiment: SYTOX Green membrane permeabilization assay on biofilm; type: cell-based, Pseudomonas aeruginosa; settings: maximum percentage at final incubation time, 10% Triton X-100 reference
Experimental: (§4) Membrane permeabilization was followed using the method SYTOX Green Fluorescence membrane permeabilization assay. In the planktonic assay, bacterial cells were grown at 37° C. to an OD600=0.2, centrifuged at 5000×g for 5 min, and resuspended in 1×PBS to an OD600=0.2. An aliquot of 200 μl was then transferred to a microtiter plate. For biofilm assay, 24 h formed P. aeruginosa biofilm in a 96-well microtiter plate were washed three times with sterile PBS. SYTOX Green was added to a final concentration of 1 μM and incubated 15 min in darkness. Changes in the fluorescence were continuously recorded after addition of a serially diluted protein/peptides from 50 to 0.1 μM in a Victor3 plate reader. The peptide concentration required to achieve half of total and total membrane permeabilization achieved after 40 min was estimated from nonlinear regression analysis as previously described (Pulido D. et al. Antimicrob Agents Chemother 2013). A maximum reference value was taken for Triton X-100 at 10%.
(§5) Thereupon, the antimicrobial mechanism of action of the RNase 3 derived peptide on P. aeruginosa biofilms was further characterized with the depolarization and permeabilization assays. As applied for the P. aeruginosa planktonic culture, the fluorescent DisC3(5) assay was also used here in order to monitor the depolarization activity of the studied protein and peptides against established biofilms. Therefore, we have measured the half depolarization action (ED50), and the total depolarization activity expressed as a percentage (Table 7). […] Similar results were obtained for the Sytox Green permeabilization assay, where the total permeabilization effect was hindered for all the AMPs tested, and between two to ten times higher concentrations were required to achieve half of the biofilm cell permeabilizing effect in comparison to the planktonic cells.

[3] = tested on: pre-established P. aeruginosa biofilm; experiment: Biofilm eradication assay, crystal violet staining; type: cell-based, Pseudomonas aeruginosa; settings: 24 h formed biofilm; 4 h at 37° C.; 10% Triton X-100 as maximum reference
Experimental: Following, the biofilm eradication activity was determined (FIG. 1 and Table 6). […] Moreover, the biofilm eradication activity of all the tested reference peptides was well above the maximum concentration tested (50 μM), except for RN3(5-17P22-36) which was able to eradicate the biofilm close to 50 μM.
as §3
Biofilms were grown as above. Twenty-four hour formed P. aeruginosa biofilm was washed three times with sterile PBS, and rinsed with 10 mM sodium phosphate buffer pH 7.5. Each well was treated with increasing protein/peptide concentrations (from 0.01 to 50 μM) and incubated at 37° C. for 4 h. The biofilm eradication was then evaluated using the crystal violet staining technique (Stepanovic S. et al. 2000). The ability of the antimicrobial peptides to disperse and reduce the biofilm mass of preformed biofilms was calculated. The peptide concentration required to achieve total preformed biofilm eradication after 4 h incubation time was estimated. A maximum reference value was taken for Triton X-100 at 10%. The minimum biofilm eradication concentration (MBEC), defined as the protein/peptide concentration where the 99.9% of the biofilm mass is eradicated was estimated.

planktonic P. aeruginosa [4] = experiment: SYTOX Green membrane permeabilization assay, planktonic; type: cell-based, Pseudomonas aeruginosa; settings: 10% Triton X-100 as maximum reference
Experimental: Further insight into the membrane-permeabilizing effect of the selected AMPs against P. aeruginosa was evaluated by the Sytox Green assay. Local membrane disturbances allow the cell uptake of the fluorescent Sytox Green dye that subsequently stains the cell nucleic acids; the fluorescence increase is registered to monitor the cell membrane permeabilization. Therefore, the half permeabilization action (ED50) was measured, and the total permeabilization activity expressed as a percentage (Table 5). […] On the other hand, WY-12 and CA-M required a 6- to 7-fold greater concentration than RNase 3 to produce half of their permeabilizing effect.
as §4

[5] = tested on: established P. aeruginosa biofilms; experiment: DiSC3(5) membrane depolarization assay on biofilm; type: cell-based, Pseudomonas aeruginosa; settings: maximum percentage at final incubation time, 10% Triton X-100 reference
Experimental: (§6) Membrane depolarization was followed using the method described earlier (Torrent M. et al. 2008). Briefly, bacterial cells were grown at 37° C. to an OD600=0.2, centrifuged at 5000×g for 7 min, washed with 5 mM Hepes at pH 7.2 containing 20 mM glucose, and resuspended in 5 mM Hepes-KOH, 20 mM glucose, and 100 mM KCl at pH 7.2 to an OD600=0.05 and 200 μl were transferred to a microtiter plate for planktonic assays. For biofilm assay, 24 h formed P. aeruginosa biofilm in a 96-well microtiter plate were washed three times with sterile PBS. Afterwards P. aeruginosa biofilms were washed with 5 mM Hepes at pH 7.2 containing 20 mM glucose, and rinsed in 5 mM Hepes-KOH, 20 mM glucose, and 100 mM KCl at pH 7.2. In both cases, DiSC3(5) was added to a final concentration of 0.4 μM and changes in the fluorescence were continuously recorded after addition of peptides at 10 μM in a Victor3 plate reader. A maximum reference value for total depolarization is calculated for Triton X-100 at 10%. Alternatively, changes in the fluorescence were continuously recorded after addition of a serially diluted protein/peptides from 50 to 0.1 μM. The peptide concentration required to achieve half of total and total membrane depolarization after 40 min incubation time was estimated from nonlinear regression analysis as previously described (Torrent M. et al. 2010)
as §5

planktonic P. aeruginosa [6] = experiment: DiSC3(5) cytoplasmic membrane depolarization assay, planktonic; type: cell-based, Pseudomonas aeruginosa; settings: 10% Triton X-100 as maximum reference
Experimental: To further investigate the antimicrobial mechanism of action of the peptide, its ability to depolarize P. aeruginosa membranes was evaluated. Depolarization activity was analyzed by the DiSC3(5) assay (Table 5). DiSC3(5) is a fluorescent probe, which is sensitive to membrane potential. The DiSC3(5) fluorescence is quenched upon interaction with intact cell membranes. When the membrane potential is lost, the probe is released to the medium, resulting in an increase of fluorescence that can be recorded as a function of peptide concentration. Thus, the half depolarization action (ED50) was evaluated, defined as the peptide concentration needed to achieve a half-depolarization effect, and the total depolarization activity at final incubation time (Table 3).
as §6

[7] = tested on: LPS (lipopolysaccharides) from P. aeruginosa; experiment: LPS binding assay, BODIPY TR cadaverine (BC) displacement; parameters: species or system Pseudomonas aeruginosa; settings: 100% = total displacement of the dye; mean ± SEM
Experimental: Following, LPS binding affinity was monitored by a fluorometric assay which measures the competitive displacement of a cadaverine fluorescent probe (BC) by the protein and peptides. The half LPS binding affinity (ED50), defined as the AMP concentration needed to achieve half of BC displacement, and the total LPS binding affinity, expressed as a percentage, were determined (Table 4). Interaction with negatively charged surfaces of bacteria is the first step for cationic peptides to reach the bacterial membranes and exert their antimicrobial action.
LPS binding was assessed using the fluorescent probe BODIPY TR cadaverine (BC) as previously described (Pulido D. et al. Febs J 2013). BC binds strongly to native LPS, specifically recognizing the lipid A portion. When a protein that interacts with LPS is added, BC is displaced from the complex and its fluorescence is increased, decreasing its occupancy factor. LPS-binding assays were carried out in a 10 mM Hepes buffer at pH 7.5. The displacement assay was performed using a 96 well microtiter plate containing stirred mixture of either LPS (10 μg/mL) and BC (10 μM). Protein/peptides were serially diluted from 10 to 0.1 μM. Fluorescence measurements were performed on a Victor3 plate reader (Perkin Elmer, Waltham, Mass.). The protein/peptide concentration required to achieve half of total and total BC displacement was estimated from nonlinear regression analysis as previously described (Wood S. J. et al. 2004)

[8] = tested on: pre-established P. aeruginosa biofilm; experiment: Biofilm cell mortality, BacTiter-Glo luminescent assay; type: cell-based, Pseudomonas aeruginosa; settings: 24 h formed biofilm; 4 h at 37° C.; 10% Triton X-100 as maximum reference; N.D. = not detected at 50 μM
Experimental: as §1, §2, §3

planktonic P. aeruginosa [9] = type: cell-based, Pseudomonas aeruginosa; settings: planktonic P. aeruginosa; 4 h at 37° C.; mean ± SEM; N.D. = not detected at 50 μM; read-out: IC50 (50% bacterial viability)
Experimental: The microbial cell viability was then assayed using the BacTiter-Glo™ luminescent kit. […] No cell reduction was detected for the peptide GL-13 even for the maximum concentration assayed (50 μM).
as §1

Molecule | mortality [1] [%] | Permeabilization Mean % ± SEM [2] [%] | Biofilm eradication (%max) [3] [%] | Permeabilization %max (planktonic P. aeruginosa [4]) [%] | Depolarization Mean % ± SEM [5] [%] | Depolarization %max (planktonic P. aeruginosa [6]) [%] | LPS binding %max (percentage of maximum displacement) [7] [%] | Biofilm cell mortality (%max) [8] | IC50 (planktonic P. aeruginosa [9]) [nM]
CC[C@H](C)[C@H](NC(=O)[C@H](Cc1ccccc1)NC(=O)[C@@H](NC(=O)[C@H](Cc1ccccc1)NC(=O)[C@H](CCCNC(=N)N)NC(=O)[C@H](CCCCN)NC(=O)[C@H](CCCNC(=N)N)NC(=O)[C@H](CCCCN)NC(=O)[C@H](Cc1c[nH]c2ccccc12)NC(=O)[C@H](CC(C)C)NC(=O)[C@@H](NC(=O)[C@@H](N)Cc1ccc(O)cc1)C(C)C)[C@@H](C)CC)C(N)=O [WY-12, YVLWKRKRFIFI-NH2] (H-YVLWKRKRFIFI-NH2; N-terminus assumed) | 39.7 ± 8.93 | 18.91 ± 2.23 | 38.36 ± 2.36 | 39.43 ± 1.19 | 32.58 ± 1.87 | 44.02 ± 4.01 | – | – | –
B1 | – | 39.4 ± 2.88 | – | 45.67 ± 2.29 | 46.11 ± 3.21 | – | 99.85 ± 9.51 | ~50% and 67.31 ± 0.79% | 840 ± 30

Reference: patent publication US10487117B2, “Antimicrobial peptide for nosocomial infections” (priority 2015, dated 2019)
